From patent US20250008983A1, “COMPOSITIONS CONTAINING PEROXYACIDS TO CONTROL PATHOGEN GROWTH IN ANIMAL FEED AND RELATED METHODS” (KEMIN INDUSTRIES, INC., priority 2023, published 2025) come the findings set out here.

The test system of the experiment is Salmonella enterica isolated from layer feed. Description: Preliminary in vitro feed assay, Salmonella count in contaminated feed over 21 days. The experiment is classed as cell-based. The settings on record: 15 kg/ton; pre-treatment Day 0. As to the method:
Preparation of the treatment. Perpropionic acid, peracetic acid, mixture of peroctanoic acid and perdecanoic acid (PC8/PC10) and Sal CURB products were used without any further dilution or mixing. The peroxy mix was prepared by mixing peracetic and perpropionic acid in 1:1 weight ratio. Briefly, 1.0 g of peroxy mix was prepared by weighing 0.5 g of peracetic acid into 0.5 g of perpropionic acid. The mixture was mixed well prior to usage. Similar procedure was followed in the preparation of 3% sulphuric acid (where […] of water) and peroxy mix with ester (where 0.9 g of peroxy mix (prepared with peracetic and propionic acid) was mixed with 0.1 g of propylene glycol propionate esters). […] Briefly, 1 mL of 75% phosphoric acid was added to 10 mL of Pro-Oxine solution and mixed well. The mixture is covered and let to stand for 10 mins prior to usage.
Preparation of stock feed inoculum. The researchers prepared contaminated feed from known methods, where Salmonella enterica isolated from layer feed was revived from the glycerol stock by plating a loopful of culture onto the TSAYE (i.e., tryptone soya agar supplemented with 0.6% yeast extract (CM0131B; Oxoid) prepared as per recommended) and incubate for 18-24 hours at 37° C. Following which, the colonies were collected aseptically with saline solution (i.e., 0.9% sodium chloride (V800372; Sigma-Aldrich) prepared in deionized water), yielding approximately 5 mL of biomass suspension. The biomass suspension was diluted accordingly to meet the contamination level required for the stock inoculum. No dilution was required for high contamination level of ca. 10^7 cfu/g whereas biomass suspension was diluted 1000 times to achieve lower contamination level of ca. 10^4 cfu/g in the stock inoculum. The stock feed inoculum was prepared by adding the biomass suspension (5 mL) into 100 g of sterile feed (made up with 7:3 ground corn and soybean, autoclaved at 121° C. for one hour and dried for 24 hours at 65° C.) with a syringe and needle, and homogenously mixed after. The stock feed inoculum was stored at 25° C. for a week. Salmonella count of the stock inoculum was determined using conventional plating method with XLD agar (i.e., Xylose lysine deoxycholate (CM0469B; Oxoid)) and BPW (i.e., buffered peptone water (CM0509B; Oxoid)) prior to usage. Briefly, three grams of stock feed inoculum was weighed into a 50 mL conical tube, diluted with 27 mL of BPW, homogenously mixed and left to stand for 30 minutes. The feed suspension was then serial diluted to the appropriate dilutions. An aliquot of 0.1 mL of the feed suspension was plated onto the agar at each dilution and incubated at 37° C. for 18-24 hours prior to enumeration. Plating was carried out in triplicates. Blank stock feed was prepared by adding 5 mL of saline into 100 g of sterile feed.
Preparation of the feed inoculum. The stock feed inoculum was diluted approximately 100 times with sterile feed where three grams of stock inoculum was added into 307 g of sterile feed and kept at 37° C. for 24 hours. The Salmonella count of the feed was determined prior to treatment. Briefly, 90 mL of BPW was added into 10 g of feed sample in a sterile bag (10^−1 dilution). The mixture was homogenously mixed with a stomacher at medium speed for three minutes and left to stand for 30 minutes. The feed supernatant was serial diluted to appropriate dilutions for plating. The plates were incubated at 37° C. for 18-24 hours prior to counting. If low Salmonella count was expected, the sample size was increased to 1 mL by plating 300, 300 and 400 uL onto three plates in triplicates for […] detection limit (10 cfu/g). Blank feed was prepared by adding three grams of blank stock feed into 307 g of sterile feed. In addition, an extra contaminated feed was prepared as a control.
Treatment of contaminated feed. […]

With `CCC(=O)OO` [Perpropionic acid, perpropionic acid], the Salmonella count is recorded as 5.62 log cfu/g.
